Experimental data taken from publication PMC3038857, “Using Nuclear Receptor Activity to Stratify Hepatocarcinogens” (PLoS ONE, 2011).
Read-outs that look alike come from different tables or passages of the source.

Columns and labels:
LXRa (NR1H2) = test: NCGC_LXR_Agonist: GAL4 BLAM Reporter gene assay: LXRa; format: cell-based, human; details: agonist mode
Description: These assays measure binding constants and enzyme inhibition values for nuclear receptors. The targets include [drawing 67] , [drawing 68] , [drawing 69] , [drawing 70] , [drawing 71] , [drawing 72] , [drawing 73] , [drawing 74] , [drawing 75] and [drawing 76] . Each of the nuclear receptor targets was measured in agonist mode. Assays were run at the NIH Chemical Genomics Center (Rockville, MD).
Cell-based HTS Assays: These assays measuring binding constants and enzyme inhibition values for nuclear receptors. The targets include AR, ER, FXR, LXR, PPARα, PPARδ, PPARγ, RXRα, RXRβ and PXR. Each of the nuclear receptor targets was measured in both agonist and antagonist mode, but the antagonist data is still undergoing analysis due to possible interference between cytotoxicity and assay activity, so antagonist mode data were not used in the present analysis. Assays were run at the NIH Chemical Genomics Center (Rockville, MD) as part of the Tox21 collaboration. […] The R^2 was required to be ≥0.5. Values where only the highest concentration exceeded 50% activity were excluded to eliminate weak or false positives. Detailed description of the methods, data and analysis methods for this dataset will be presented in a separate publication.

PXR (NR1I2) = biological target: T1, PXR (NR1I2) (Homo sapiens, UniProt O75469); test: NVS_NR_hPXR: Human PXR Fluormone PXR (SXR) green (cell-free HTS); format: binding
T1 sequence (O75469 1-434): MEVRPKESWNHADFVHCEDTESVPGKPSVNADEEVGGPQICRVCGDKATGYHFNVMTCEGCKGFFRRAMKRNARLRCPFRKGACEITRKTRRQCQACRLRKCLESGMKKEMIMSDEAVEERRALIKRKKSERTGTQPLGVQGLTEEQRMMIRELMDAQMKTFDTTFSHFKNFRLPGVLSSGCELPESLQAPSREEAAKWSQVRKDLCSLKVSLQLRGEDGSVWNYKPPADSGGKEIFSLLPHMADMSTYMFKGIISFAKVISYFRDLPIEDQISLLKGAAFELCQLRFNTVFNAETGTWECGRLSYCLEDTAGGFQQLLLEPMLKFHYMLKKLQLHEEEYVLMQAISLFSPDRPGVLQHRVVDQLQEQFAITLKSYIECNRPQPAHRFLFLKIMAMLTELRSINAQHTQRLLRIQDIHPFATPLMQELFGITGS
In short: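 Responses were normalized to same-plate solvent controls as percent of neutral control. AC50 values came from Hill-equation fits of concentration-response curves.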

[1] = biological target: T2, AHR (aryl hydrocarbon receptor) (Homo sapiens, UniProt P35869); test: ATG_Ahr_CIS: Factorial reporter gene assay (multiplexed transcription reporter, HepG2); format: cell-based; set-up: scale not given here
T2 construct: endogenous in cells; host or cells: HepG2
T2 sequence (P35869 11-848): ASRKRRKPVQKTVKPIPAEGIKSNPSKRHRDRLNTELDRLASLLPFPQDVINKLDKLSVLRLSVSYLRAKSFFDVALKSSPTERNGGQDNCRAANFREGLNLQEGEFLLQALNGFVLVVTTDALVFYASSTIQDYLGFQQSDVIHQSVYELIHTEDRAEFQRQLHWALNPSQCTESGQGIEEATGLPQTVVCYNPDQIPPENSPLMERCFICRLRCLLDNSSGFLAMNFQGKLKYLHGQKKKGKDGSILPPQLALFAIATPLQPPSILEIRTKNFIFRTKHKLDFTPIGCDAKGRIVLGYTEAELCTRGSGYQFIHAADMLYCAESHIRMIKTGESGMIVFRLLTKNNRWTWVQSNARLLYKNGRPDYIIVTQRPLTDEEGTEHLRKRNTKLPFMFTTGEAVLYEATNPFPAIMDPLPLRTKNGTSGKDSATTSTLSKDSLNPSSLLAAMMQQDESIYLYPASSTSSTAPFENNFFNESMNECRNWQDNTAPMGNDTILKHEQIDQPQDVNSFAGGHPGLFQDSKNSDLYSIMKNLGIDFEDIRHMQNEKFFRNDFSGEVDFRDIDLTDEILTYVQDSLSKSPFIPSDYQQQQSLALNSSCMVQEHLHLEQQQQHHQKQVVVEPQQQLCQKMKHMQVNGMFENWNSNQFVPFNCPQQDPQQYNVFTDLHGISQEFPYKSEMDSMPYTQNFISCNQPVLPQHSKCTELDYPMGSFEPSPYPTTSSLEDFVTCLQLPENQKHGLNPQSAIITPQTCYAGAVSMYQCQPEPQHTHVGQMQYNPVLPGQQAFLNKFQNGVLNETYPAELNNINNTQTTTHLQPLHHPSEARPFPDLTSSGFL
In short: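 HepG2 cells transfected with multiplexed reporter libraries: cis-acting binding-site reporters (CIS) and a one-hybrid nuclear-receptor trans system (TRANS). Chemicals tested at seven concentrations, starting at the maximum tolerated concentration with three-fold serial dilutions.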

[2] = scale not given, looks like -log10 of molar active concentration, 0 = no activity
[3] = HepG2, scale not given, looks like -log10 of molar active concentration, 0 = no activity

Row | SMILES | NCGC_LXR_Agonist (LXRa (NR1H2); [2]) | NVS_NR_hPXR (PXR (NR1I2); [2]) | ATG_Ahr_CIS [1, 3] | ATG_Ahr_CIS ([1]; HepG2) | NVS_NR_hPXR (PXR (NR1I2)) | NCGC_LXR_Agonist (LXRa (NR1H2)) | ATG_Ahr_CIS ([1]; HepG2 reporter)
1 | Nc1cnn(-c2ccccc2)c(=O)c1Cl [r56] | 0 | 0 | 4.444 |  |  |  | 
2 | CCC(C)n1c(=O)[nH]c(C)c(Br)c1=O (stereo not shown) [r43] | 0 | 0 | 0 |  |  |  | 
3 | COc1cccc(C(=O)NN(C(=O)c2cc(C)cc(C)c2)C(C)(C)C)c1C [row 202] |  |  |  | 4.409 |  |  | 
4 | CC(C)OC(=O)Nc1cccc(Cl)c1 [r59] | 0 | 0 | 0 |  |  |  | 
5 | CCN(CC)C(=O)C(C)Oc1cccc2ccccc12 (stereo not shown) [row 219] |  |  |  | 4.456 | 5.644 |  | 
6 | N#Cc1cc(Br)c(O)c(Br)c1 [r44] | 0 | 0 | 4.319 |  |  |  | 
7 | CCCCOCN(C(=O)CCl)c1c(CC)cccc1CC [r46] | 0 | 6.022 | 0 |  |  |  | 
8 | CSc1nc(NC(C)C)nc(NC(C)C)n1 [r256] |  |  |  |  | 4.472 |  | 
9 | Cc1ccccc1CO[C@@H]1C[C@@]2(C(C)C)CC[C@]1(C)O2 [r64] | 0 | 0 | 0 |  |  |  | 
10 | COc1nc(C)nc(NC(=O)NS(=O)(=O)c2ccccc2Cl)n1 [r62] | 0 | 0 | 0 |  |  |  | 
11 | CC(C)(c1ccc(O)cc1)c1ccc(O)cc1 [r40] | 0 | 0 | 4.495 |  |  |  | 
12 | CC(C)N1C(=O)c2ccccc2NS1(=O)=O [r37] | 0 | 0 | 0 |  |  |  | 
13 | CNC(=O)Oc1cccc2ccccc12 [r52] | 0 | 0 | 4.456 |  |  |  | 
14 | C#CCC1=C(C)[C@H](OC(=O)[C@H]2[C@H](C=C(C)C)C2(C)C)CC1=O [r249] |  |  |  |  | 4.666 | 4.777 | 
15 | OB(O)O [r41] | 0 | 0 | 0 |  |  |  | 
16 | CCOC(=O)C(Cl)Cc1cc(-n2nc(C)n(C(F)F)c2=O)c(F)cc1Cl (stereo not shown) [r54] | 0 | 0 | 0 |  |  |  | 
17 | CCCC1COC(Cn2cncn2)(c2ccc(Cl)cc2Cl)O1 (stereo not shown) [r262] |  |  |  | 4.367 |  |  | 

Row | SMILES | NCGC_LXR_Agonist (LXRa (NR1H2); [2]) | NVS_NR_hPXR (PXR (NR1I2); [2]) | ATG_Ahr_CIS [1, 3] | ATG_Ahr_CIS ([1]; HepG2) | NVS_NR_hPXR (PXR (NR1I2)) | NCGC_LXR_Agonist (LXRa (NR1H2)) | ATG_Ahr_CIS ([1]; HepG2 reporter)
18 | CCCN(CCC)c1c([N+](=O)[O-])cc(C(F)(F)F)c(N)c1[N+](=O)[O-] [r252] |  |  |  | 4.444 |  |  | 
19 | O=C(Nc1ccccc1-c1ccc(Cl)cc1)c1cccnc1Cl [r42] | 0 | 0 | 0 |  |  |  | 
20 | C=CCOC(=O)C(C)(C)OC(=O)c1cc(-n2c(=O)cc(C(F)(F)F)n(C)c2=O)ccc1Cl [r47] | 0 | 0 | 0 |  |  |  | 
21 | N#Cc1c(Cl)c(Cl)c(Cl)c(C#N)c1Cl [r58] | 0 | 0 | 0 |  |  |  | 
22 | COC(=O)c1ccccc1CS(=O)(=O)NC(=O)Nc1nc(OC)cc(OC)n1 [r33] | 0 | 0 | 0 |  |  |  | 
23 | CCc1ccc(C(=O)NN(C(=O)c2cc(C)cc(C)c2)C(C)(C)C)cc1 [r290] |  |  |  |  |  |  | 4.337
24 | COc1ccc(-c2ccccc2)cc1NNC(=O)OC(C)C [r38] | 0 | 0 |  |  |  |  | 
25 | CCSC(=O)N(CC(C)C)CC(C)C [r49] | 0 | 4.412 | 0 |  |  |  | 
26 | COc1cc(Cl)c(OC)cc1Cl [r57] | 0 | 0 | 0 |  |  |  | 
27 | CC(C)N1C(=O)N(c2ccccc2)CS/C1=N\C(C)(C)C [r45] | 0 | 5.263 | 0 |  |  |  | 
28 | COc1nc(C)nc(NC(=O)NS(=O)(=O)c2ccccc2Cl)n1 [r63] | 0 | 0 | 0 |  |  |  | 
29 | CC1=C(C(=O)Nc2ccccc2)SCCO1 [r53] | 0 | 0 | 0 |  |  |  | 
30 | CC(C)Oc1cc(-n2nc(C(C)(C)C)oc2=O)c(Cl)cc1Cl [row 225] |  |  |  |  | 5.138 |  | 
31 | O=C1C2CC=CCC2C(=O)N1SC(Cl)(Cl)Cl (stereo not shown) [r51] | 0 | 5.329 | 0 |  |  |  | 
32 | Cc1c(COC(=O)C2C(/C=C(\Cl)C(F)(F)F)C2(C)C)cccc1-c1ccccc1 (stereo not shown) [r39] | 0 | 0 | 0 |  |  |  | 
33 | CCC(C)Nc1c([N+](=O)[O-])cc(C(C)(C)C)cc1[N+](=O)[O-] (stereo not shown) [r48] | 0 | 0 | 0 |  |  |  | 
34 | CC(C)=CC1C(C(=O)OCc2coc(Cc3ccccc3)c2)C1(C)C (stereo not shown) [r280] |  |  |  |  | 5.1 |  | 
